Experimental data from ChEMBL document CHEMBL1201862, “PubChem BioAssay data set” (2004).
Activity calls are given as the source filed them.

Columns and labels:
[1] = test system: Vero; assay: cells; type: functional, cell-based; conditions: Chlorocebus sabaeus
[2] = target: Delta-type opioid receptor (Homo sapiens, UniProt P41143); assay: Counterscreen for agonists of heterodimerization of the mu 1 (OPRM1) and delta 1 (OPRD1) opioid receptors: Luminescence-based cell-based high throughput dose response assay to identify agonists of OPRD1 homodimerization. [Related pubchem assays (depositor defined):AID504326, AID504355, AID504692, AID504904, AID504905]; type: functional
[3] = target: Mu-type opioid receptor (Homo sapiens, UniProt P35372); assay: Counterscreen for agonists of heterodimerization of the mu 1 (OPRM1) and delta 1 (OPRD1) opioid receptors: Luminescence-based cell-based high throughput dose response assay to identify agonists of OPRM1 homodimerization.; type: functional;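 note: U2OS cells expressing OPRM1 and beta-arrestin as split beta-galactosidase partners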
[4] = target: 5-hydroxytryptamine receptor 5A (Homo sapiens, UniProt P47898); assay: Counterscreen for agonists of OPRM1-OPRD1 heterodimerization: luminescence-based cell-based high throughput dose response assay to identify agonists of 5-hydroxytryptamine (serotonin) 5A receptor (HTR5A). [Related pubchem assays (depositor defined):AID504326, AID504355, AID504692, AID504904, AID504905]; type: functional
[5] = test system: INS1; assay: protection of INS-1E cells from cytokine death, dose response, ATP luminescence, dry powder (AID 488844); type: functional, cell-based; conditions: Rattus norvegicus
[6] = target: T1, Dual specificity protein phosphatase 3 (Homo sapiens, UniProt P51452); assay: VHR1 phosphatase inhibitors, primary screen, biochemical, absorbance, uHTS (AID 1654)
[7] = target: T1, Dual specificity protein phosphatase 3; assay: VHR1 phosphatase inhibitors, biochemical (AID 1878)
[8] = target: T2, Dual specificity protein phosphatase 6 (Rattus norvegicus, UniProt Q64346); assay: MKP-3 phosphatase inhibitors, primary screen, biochemical, rat enzyme, in vitro (AID 425)
T2 sequence (Q64346 whole entry): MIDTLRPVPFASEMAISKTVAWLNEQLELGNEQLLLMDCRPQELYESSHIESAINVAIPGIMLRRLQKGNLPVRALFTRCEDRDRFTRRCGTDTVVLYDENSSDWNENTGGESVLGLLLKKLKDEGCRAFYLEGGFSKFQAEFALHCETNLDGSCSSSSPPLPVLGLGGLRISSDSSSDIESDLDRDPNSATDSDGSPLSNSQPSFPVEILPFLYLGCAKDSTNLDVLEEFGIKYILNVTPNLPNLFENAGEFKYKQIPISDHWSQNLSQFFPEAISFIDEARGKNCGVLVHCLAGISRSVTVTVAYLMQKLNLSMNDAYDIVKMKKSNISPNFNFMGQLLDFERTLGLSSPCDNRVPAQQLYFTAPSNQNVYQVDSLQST

[9] = target: Intestinal-type alkaline phosphatase (Mus musculus, UniProt P24822); assay: PubChem AID 488785; type: functional
[10] = target: T3, Alkaline phosphatase, tissue-nonspecific isozyme (Homo sapiens, UniProt P05186); assay: TNAP enzyme inhibition by screening hits, dose response, selectivity assay for mouse IAP inhibitor project, biochemical, human TNAP, uHTS hits (AID 488906); type: functional
T3 sequence (P05186 whole entry): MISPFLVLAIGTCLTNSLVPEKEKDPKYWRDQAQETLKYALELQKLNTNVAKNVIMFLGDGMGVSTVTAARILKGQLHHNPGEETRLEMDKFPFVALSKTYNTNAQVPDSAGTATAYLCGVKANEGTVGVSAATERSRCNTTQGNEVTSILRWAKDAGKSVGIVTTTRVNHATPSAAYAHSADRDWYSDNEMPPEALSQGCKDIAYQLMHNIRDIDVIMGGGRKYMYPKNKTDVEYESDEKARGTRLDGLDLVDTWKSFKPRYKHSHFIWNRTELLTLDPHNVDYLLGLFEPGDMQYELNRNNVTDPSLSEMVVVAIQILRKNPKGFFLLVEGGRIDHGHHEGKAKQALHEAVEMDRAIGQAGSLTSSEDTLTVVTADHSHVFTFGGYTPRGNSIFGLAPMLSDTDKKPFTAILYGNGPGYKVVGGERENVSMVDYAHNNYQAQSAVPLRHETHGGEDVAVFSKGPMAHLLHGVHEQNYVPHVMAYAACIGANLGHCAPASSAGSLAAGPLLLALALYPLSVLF

[11] = target: Intestinal-type alkaline phosphatase (Homo sapiens, UniProt P09923); assay: inhibition of human intestinal alkaline phosphatase – biochemical, dose response (AID 488876); type: functional
[12] = target: DNA (cytosine-5)-methyltransferase 1 (Homo sapiens, UniProt P26358); assay: DNMT1 methyltransferase inhibitors, confirmation, biochemical, fluorescent molecular beacon (AID 602386); type: functional
[13] = target: T4, Small ubiquitin-related modifier 2 (Homo sapiens, UniProt P61956); assay: SUMO2–SIM peptide binding inhibitors, dose response, selectivity assay for SUMO1 interaction inhibitor project, biochemical, fluorescence polarization, uHTS hits (AID 624385); type: functional; conditions: read-out: IC50_Mean
[14] = target: T5, Small ubiquitin-related modifier 1 (Homo sapiens, UniProt P63165); assay: inhibitors of SUMO1 peptide binding, dose response, biochemical, fluorescence polarization, uHTS hits (AID 624382); type: functional; conditions: read-out: IC50_Mean
[15] = target: T4, Small ubiquitin-related modifier 2; assay: inhibitors of SUMO2 protein-protein interaction, dose response, selectivity assay for SUMO1 interaction inhibitor project, biochemical, FRET, human SUMO2, uHTS hits (AID 624384); type: functional; conditions: read-out: IC50_Mean
[16] = target: T5, Small ubiquitin-related modifier 1; assay: inhibitors of SUMO1 partner interactions, dose response, biochemical, FRET (AID 624383); type: functional; conditions: read-out: IC50_Mean
[17] = target: Albumin (Bos taurus, UniProt P02769); assay: Counterscreen for inhibitors of T-cell receptor (TCR)-CD3 interaction: Fluorescence-based biochemical high throughput dose response assay to identify inhibitors of T-cell receptor (TCR)-CD3 interaction using a TAMRA-labeled BSA probe.; type: functional
[18] = target: T6, Caspase-6 (Homo sapiens, UniProt P55212); assay: human caspase-6 inhibitors, dose response, biochemical, VEID-R110 fluorescence, cherry-pick (AID 720632)
T6 sequence (P55212 whole entry): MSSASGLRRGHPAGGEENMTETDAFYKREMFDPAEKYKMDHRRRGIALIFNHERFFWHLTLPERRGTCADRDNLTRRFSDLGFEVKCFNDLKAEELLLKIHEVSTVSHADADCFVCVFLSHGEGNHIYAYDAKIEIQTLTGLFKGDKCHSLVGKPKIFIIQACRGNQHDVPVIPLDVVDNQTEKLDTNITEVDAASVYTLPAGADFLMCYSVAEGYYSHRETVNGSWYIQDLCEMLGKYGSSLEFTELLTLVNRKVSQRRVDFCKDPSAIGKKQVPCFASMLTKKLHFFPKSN

[19] = THP-1 cell cytotoxicity, dose response, cytotoxicity control for Vif-APOBEC3G degradation inhibitor project, THP-1 cells (AID 1117359); type: functional; conditions: Human immunodeficiency virus 1, THP-1

T5 sequence (P63165 whole entry): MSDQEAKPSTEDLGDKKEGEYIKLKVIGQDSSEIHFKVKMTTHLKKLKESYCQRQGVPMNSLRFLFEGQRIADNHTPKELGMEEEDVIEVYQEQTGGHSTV
Sequence of Mu-type opioid receptor (P35372 whole entry): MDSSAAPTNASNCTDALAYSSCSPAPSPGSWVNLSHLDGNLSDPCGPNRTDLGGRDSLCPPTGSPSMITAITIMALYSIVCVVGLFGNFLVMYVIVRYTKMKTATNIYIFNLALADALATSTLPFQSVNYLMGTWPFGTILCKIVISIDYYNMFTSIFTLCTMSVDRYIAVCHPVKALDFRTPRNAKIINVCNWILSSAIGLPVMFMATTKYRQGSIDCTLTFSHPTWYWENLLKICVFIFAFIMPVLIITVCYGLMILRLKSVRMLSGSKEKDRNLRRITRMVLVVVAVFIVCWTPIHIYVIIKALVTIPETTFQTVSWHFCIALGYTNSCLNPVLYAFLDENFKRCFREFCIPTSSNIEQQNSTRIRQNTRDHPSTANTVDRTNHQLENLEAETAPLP
T1 sequence (P51452 whole entry): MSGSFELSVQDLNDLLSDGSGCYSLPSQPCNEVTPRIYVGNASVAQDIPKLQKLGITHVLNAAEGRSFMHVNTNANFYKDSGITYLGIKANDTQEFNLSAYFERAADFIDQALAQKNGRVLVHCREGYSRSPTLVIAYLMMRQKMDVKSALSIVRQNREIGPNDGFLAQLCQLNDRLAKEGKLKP
Sequence of Delta-type opioid receptor (P41143 whole entry): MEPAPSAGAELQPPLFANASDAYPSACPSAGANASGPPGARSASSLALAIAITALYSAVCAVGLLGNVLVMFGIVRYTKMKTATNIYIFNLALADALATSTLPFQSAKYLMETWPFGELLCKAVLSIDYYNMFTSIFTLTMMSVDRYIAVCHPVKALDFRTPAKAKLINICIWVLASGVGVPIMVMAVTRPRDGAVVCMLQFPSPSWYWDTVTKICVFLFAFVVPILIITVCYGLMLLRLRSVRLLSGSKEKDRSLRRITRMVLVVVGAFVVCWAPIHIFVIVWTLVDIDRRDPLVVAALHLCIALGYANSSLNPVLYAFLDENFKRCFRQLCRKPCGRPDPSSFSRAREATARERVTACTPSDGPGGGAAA
T4 sequence (P61956 whole entry): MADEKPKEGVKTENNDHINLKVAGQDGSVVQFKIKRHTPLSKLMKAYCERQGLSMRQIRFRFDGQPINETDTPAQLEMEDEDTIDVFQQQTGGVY
Sequence of 5-hydroxytryptamine receptor 5A (P47898 whole entry): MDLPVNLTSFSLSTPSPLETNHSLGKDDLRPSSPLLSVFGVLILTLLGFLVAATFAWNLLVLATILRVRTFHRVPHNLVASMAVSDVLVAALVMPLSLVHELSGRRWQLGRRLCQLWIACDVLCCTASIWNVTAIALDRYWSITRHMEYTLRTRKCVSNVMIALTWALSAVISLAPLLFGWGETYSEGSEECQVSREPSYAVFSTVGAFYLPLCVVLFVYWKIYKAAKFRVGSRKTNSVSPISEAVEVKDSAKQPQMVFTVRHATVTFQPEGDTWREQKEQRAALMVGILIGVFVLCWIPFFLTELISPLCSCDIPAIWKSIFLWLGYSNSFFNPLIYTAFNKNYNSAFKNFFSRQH
Sequence of Albumin (P02769 whole entry): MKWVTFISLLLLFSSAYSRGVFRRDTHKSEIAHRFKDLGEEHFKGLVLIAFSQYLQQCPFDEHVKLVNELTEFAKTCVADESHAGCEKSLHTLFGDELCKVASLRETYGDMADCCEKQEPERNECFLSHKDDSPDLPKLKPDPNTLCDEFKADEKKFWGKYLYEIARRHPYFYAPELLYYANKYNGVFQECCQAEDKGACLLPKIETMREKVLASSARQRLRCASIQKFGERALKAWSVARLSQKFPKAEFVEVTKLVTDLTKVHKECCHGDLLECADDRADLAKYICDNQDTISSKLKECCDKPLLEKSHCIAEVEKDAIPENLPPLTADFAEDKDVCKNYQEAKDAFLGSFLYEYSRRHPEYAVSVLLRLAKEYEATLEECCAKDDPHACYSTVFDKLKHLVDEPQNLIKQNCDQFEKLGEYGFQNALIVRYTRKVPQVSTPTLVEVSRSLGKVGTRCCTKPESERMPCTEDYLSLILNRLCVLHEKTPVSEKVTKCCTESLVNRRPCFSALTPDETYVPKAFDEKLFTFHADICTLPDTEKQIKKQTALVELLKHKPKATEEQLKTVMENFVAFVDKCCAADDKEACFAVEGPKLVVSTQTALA
Sequence of DNA (cytosine-5)-methyltransferase 1 (P26358 whole entry): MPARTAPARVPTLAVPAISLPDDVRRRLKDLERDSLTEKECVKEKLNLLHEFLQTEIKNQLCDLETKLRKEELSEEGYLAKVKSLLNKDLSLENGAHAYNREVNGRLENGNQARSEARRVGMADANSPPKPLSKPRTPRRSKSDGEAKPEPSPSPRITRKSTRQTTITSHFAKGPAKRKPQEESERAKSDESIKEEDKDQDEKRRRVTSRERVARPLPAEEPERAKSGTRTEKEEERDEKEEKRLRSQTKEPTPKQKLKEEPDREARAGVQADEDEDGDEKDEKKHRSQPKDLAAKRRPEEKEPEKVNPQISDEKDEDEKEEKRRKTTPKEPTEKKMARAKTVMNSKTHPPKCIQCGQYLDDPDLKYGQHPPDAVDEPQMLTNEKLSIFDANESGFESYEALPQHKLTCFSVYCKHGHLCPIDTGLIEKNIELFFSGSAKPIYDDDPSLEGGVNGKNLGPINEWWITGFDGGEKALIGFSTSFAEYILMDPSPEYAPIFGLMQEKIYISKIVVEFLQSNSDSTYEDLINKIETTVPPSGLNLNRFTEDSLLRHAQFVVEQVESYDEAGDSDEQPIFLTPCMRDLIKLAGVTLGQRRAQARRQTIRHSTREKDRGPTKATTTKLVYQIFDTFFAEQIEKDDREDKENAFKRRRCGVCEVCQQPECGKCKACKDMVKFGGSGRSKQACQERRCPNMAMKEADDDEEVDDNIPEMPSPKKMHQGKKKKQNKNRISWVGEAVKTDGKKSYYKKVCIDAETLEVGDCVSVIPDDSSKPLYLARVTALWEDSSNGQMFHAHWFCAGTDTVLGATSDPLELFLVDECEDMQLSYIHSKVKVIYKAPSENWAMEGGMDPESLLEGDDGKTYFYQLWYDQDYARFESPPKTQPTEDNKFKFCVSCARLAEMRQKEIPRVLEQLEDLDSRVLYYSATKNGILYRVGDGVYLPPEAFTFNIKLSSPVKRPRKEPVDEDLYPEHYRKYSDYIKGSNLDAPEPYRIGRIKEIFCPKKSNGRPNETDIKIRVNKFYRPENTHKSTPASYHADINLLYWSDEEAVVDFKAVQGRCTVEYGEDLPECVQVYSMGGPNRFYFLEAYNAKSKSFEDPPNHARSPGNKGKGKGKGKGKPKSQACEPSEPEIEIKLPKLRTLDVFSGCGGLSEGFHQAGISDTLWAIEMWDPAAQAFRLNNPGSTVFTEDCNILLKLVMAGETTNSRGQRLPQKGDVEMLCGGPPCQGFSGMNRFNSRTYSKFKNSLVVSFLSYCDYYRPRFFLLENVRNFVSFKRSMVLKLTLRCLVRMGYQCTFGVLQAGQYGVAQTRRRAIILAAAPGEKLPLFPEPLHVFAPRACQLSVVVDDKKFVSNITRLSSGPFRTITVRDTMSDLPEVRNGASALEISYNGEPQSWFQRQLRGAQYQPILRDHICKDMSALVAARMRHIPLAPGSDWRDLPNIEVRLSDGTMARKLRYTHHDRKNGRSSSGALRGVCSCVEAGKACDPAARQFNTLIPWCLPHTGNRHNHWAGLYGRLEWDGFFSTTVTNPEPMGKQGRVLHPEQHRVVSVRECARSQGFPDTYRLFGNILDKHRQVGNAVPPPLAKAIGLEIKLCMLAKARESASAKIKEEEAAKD
Sequence of Intestinal-type alkaline phosphatase (Homo sapiens, UniProt P09923) (P09923 whole entry): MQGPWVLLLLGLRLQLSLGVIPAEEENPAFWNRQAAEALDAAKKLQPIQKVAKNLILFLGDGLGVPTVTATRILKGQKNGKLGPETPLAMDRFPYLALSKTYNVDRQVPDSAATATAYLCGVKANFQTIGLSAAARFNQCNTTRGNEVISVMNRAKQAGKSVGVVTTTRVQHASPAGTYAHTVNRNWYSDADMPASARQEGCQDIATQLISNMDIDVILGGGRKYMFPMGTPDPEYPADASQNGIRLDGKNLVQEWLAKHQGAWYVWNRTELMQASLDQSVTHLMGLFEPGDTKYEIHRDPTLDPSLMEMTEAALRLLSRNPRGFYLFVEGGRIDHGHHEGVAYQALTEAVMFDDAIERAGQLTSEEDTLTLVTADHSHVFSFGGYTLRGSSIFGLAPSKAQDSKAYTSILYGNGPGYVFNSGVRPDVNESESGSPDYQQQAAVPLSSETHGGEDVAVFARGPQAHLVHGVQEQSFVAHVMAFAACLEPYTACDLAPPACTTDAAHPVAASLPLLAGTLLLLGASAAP
Sequence of Intestinal-type alkaline phosphatase (Mus musculus, UniProt P24822) (P24822 whole entry): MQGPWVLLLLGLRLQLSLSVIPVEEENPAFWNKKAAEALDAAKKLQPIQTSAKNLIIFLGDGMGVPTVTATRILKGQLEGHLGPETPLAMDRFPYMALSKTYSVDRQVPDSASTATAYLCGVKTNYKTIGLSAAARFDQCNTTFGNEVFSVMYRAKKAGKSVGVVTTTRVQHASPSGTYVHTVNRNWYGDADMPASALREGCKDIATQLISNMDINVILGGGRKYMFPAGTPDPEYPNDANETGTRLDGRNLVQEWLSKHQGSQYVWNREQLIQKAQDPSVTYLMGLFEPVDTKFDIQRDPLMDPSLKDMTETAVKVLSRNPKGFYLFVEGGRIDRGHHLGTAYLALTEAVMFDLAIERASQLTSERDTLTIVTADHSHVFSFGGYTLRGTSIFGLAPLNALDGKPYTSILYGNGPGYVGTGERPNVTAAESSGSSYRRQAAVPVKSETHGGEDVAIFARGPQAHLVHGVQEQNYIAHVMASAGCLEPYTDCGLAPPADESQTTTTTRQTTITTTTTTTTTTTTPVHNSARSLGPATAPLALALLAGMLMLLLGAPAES

Structure (SMILES): N#C/C(=C\c1c(Oc2ccccc2Cl)nc2ccccn2c1=O)C(=O)NC1CCS(=O)(=O)C1 (configuration not stated)
- IC50 [1]: > 25 µM (active)

Structure (SMILES): CCc1ccc(NC(=O)N(CCCN2CCOCC2)Cc2cccs2)cc1
- EC50 [2]: > 92.5 µM (inactive)
- EC50 [3]: > 92.5 µM (inactive)
- EC50 [4]: > 92.5 µM (inactive)

Structure (SMILES): CC(=O)Nc1ccc(S(=O)(=O)/N=C2\C(=O)c3ccccc3C(O)=C2N2CCN(Cc3ccccc3)CC2)cc1
- EC50 [2]: > 92.5 µM (inactive)
- EC50 [3]: > 92.5 µM (inactive)
- EC50 [4]: > 92.5 µM (inactive)

Structure (SMILES): COc1ccc(S(=O)(=O)N(C)C[C@H]2Oc3c(NC(=O)Nc4cccc5ccccc45)cccc3C(=O)N([C@H](C)CO)C[C@H]2C)cc1
- AC50 [5]: 41.5 µM (active)

Structure (SMILES): O=C(N/N=C/c1cn(Cc2cccc(F)c2)c2ccccc12)c1cc(O)cc(O)c1
- IC50 [6]: 4.76 µM (active)
- IC50 [7]: 2.08 µM (active)
- IC50 [8]: 74.4 µM (active)
- IC50 [9]: 2.7 µM (active)
- IC50 [10]: > 100 µM (inactive)
- IC50 [11]: > 100 µM (inactive)
- IC50 [12]: 2.39 µM (active)
- IC50 [13]: 50.6 µM (inactive)
- IC50 [14]: 10.3 µM (active)
- IC50 [15]: 2.49 µM (active)
- IC50 [16]: 6.82 µM (active)
- IC50 [17]: > 94.1 µM (inactive)
- AC50 [18]: 0.461 µM (active)
- CC50 [19]: > 40 µM (active)
